Among the test systems are OVCAR-3 ovarian; SK-MEL-28 melanoma; NCI-H522 lung; UACC-62 melanoma; A549 NSCLC; HL-60(TB) leukemia; SF-295 CNS; HCT-15 colon; M14 melanoma; MOLT-4 leukemia.
Assay in all cases: DTP human tumour cell line panel, 48 h

Several values for one entry are separate records, joined by “and”; a condition that tells them apart may be missing. Equal values may be shown once.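 Five concentrations, 48 hours, 96-well plates. At the GI50, growth is halved. TGI: total growth inhibition.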

In general, GI50 refers to the concentration that inhibits growth by half. The TGI is the concentration giving total growth inhibition. Turning to `CCOc1ccccc1N=Nc1c(C)[nH]n(-c2nc(-c3ccccc3)cs2)c1=O`, the GI50 was 57.7 µM in the experiment on OVCAR-3 ovarian; more than 84.9 µM in the experiment on SK-MEL-28 melanoma; 22.1 µM in the experiment with NCI-H522 lung; 35.6 µM in the experiment on UACC-62 melanoma; 49.9 µM in the experiment with A549 NSCLC; more than 100 µM in the experiment with HL-60(TB) leukemia. The GI50 in the experiment on SF-295 CNS is 28.3 µM; in the experiment on HCT-15 colon, more than 100 µM; with M14 melanoma, more than 100 µM; in the experiment with MOLT-4 leukemia, more than 100 µM. Further, the TGI was more than 100 µM in the experiment on OVCAR-3 ovarian; more than 100 µM in the experiment with SK-MEL-28 melanoma; 87.6 µM with NCI-H522 lung; more than 100 µM in the experiment on UACC-62 melanoma; more than 100 µM with A549 NSCLC; more than 100 µM with HL-60(TB) leukemia. Also, the TGI with SF-295 CNS, in the experiment with HCT-15 colon, with M14 melanoma and in the experiment on MOLT-4 leukemia was more than 100 µM throughout.
For the molecule `N#CC(c1nc2ccccc2nc1Cl)S(=O)(=O)c1ccccc1` (stereo not given), the TGI with OVCAR-3 ovarian, in the experiment with SK-MEL-28 melanoma, with NCI-H522 lung, in the experiment with UACC-62 melanoma, with A549 NSCLC and in the experiment on HL-60(TB) leukemia was more than 100 µM in each case. Further, the TGI with HCT-15 colon, in the experiment on M14 melanoma and in the experiment on MOLT-4 leukemia was more than 100 µM each time.
Take `CC(C)(O)CC(=O)NCCn1ccc2ncnc(Nc3ccc(Oc4cccc(C(F)(F)F)c4)c(Cl)c3)c21`: the GI50 is 2.42 µM in the experiment with OVCAR-3 ovarian; 4.43 µM in the experiment with SK-MEL-28 melanoma; 0.535 µM in the experiment with NCI-H522 lung; 2.96 µM in the experiment on UACC-62 melanoma; 3.05 µM in the experiment on A549 NSCLC; 2.88 µM in the experiment with HL-60(TB) leukemia. For the same molecule, the GI50 is 3.79 µM with SF-295 CNS, 2.5 µM in the experiment on HCT-15 colon, 4.17 µM in the experiment with M14 melanoma and 3.54 µM in the experiment with MOLT-4 leukemia. Also, the TGI in the experiment with OVCAR-3 ovarian, in the experiment on SK-MEL-28 melanoma, in the experiment on NCI-H522 lung, with UACC-62 melanoma, in the experiment with A549 NSCLC and in the experiment with HL-60(TB) leukemia was more than 10 µM each time. For the same molecule, the TGI with SF-295 CNS, in the experiment on HCT-15 colon, in the experiment with M14 melanoma and in the experiment on MOLT-4 leukemia was more than 10 µM in each case.
Regarding `CCc1cccc(C)c1NC(=O)C(=O)Cc1nc2ccccc2s1`, the TGI with OVCAR-3 ovarian, in the experiment on SK-MEL-28 melanoma, in the experiment with NCI-H522 lung, in the experiment with UACC-62 melanoma, in the experiment with A549 NSCLC and in the experiment on HL-60(TB) leukemia was more than 100 µM throughout. Moreover, the TGI in the experiment on SF-295 CNS, with M14 melanoma and in the experiment on MOLT-4 leukemia was more than 100 µM each time.
For the molecule `CCN(CC)Cc1ccc(Nc2nccc(-c3cnn4ncccc34)n2)cc1`, the GI50 with OVCAR-3 ovarian was 0.0115 µM; with SK-MEL-28 melanoma, 0.015 µM; with NCI-H522 lung, 0.049 µM; in the experiment on UACC-62 melanoma, 0.0188 µM; with A549 NSCLC, 0.0163 µM; in the experiment on HL-60(TB) leukemia, 0.00687 µM. The GI50 is 0.0311 µM in the experiment with SF-295 CNS, 0.0265 µM with HCT-15 colon, 0.0291 µM with M14 melanoma and 0.0388 µM in the experiment on MOLT-4 leukemia. Further, the TGI in the experiment with OVCAR-3 ovarian is 0.106 µM; in the experiment on SK-MEL-28 melanoma, 0.0727 µM; in the experiment with NCI-H522 lung, 0.116 µM; in the experiment on UACC-62 melanoma, 0.0694 µM; in the experiment on A549 NSCLC, more than 25 µM; in the experiment on HL-60(TB) leukemia it was 0.0229 µM. The TGI in the experiment on SF-295 CNS is more than 25 µM; with HCT-15 colon it was more than 25 µM; in the experiment with M14 melanoma, 0.0845 µM; in the experiment on MOLT-4 leukemia it was 0.144 µM.
On to `C/C=C(\C)C(=O)O[C@H]1C=CC(=O)O[C@@H]1CC[C@H](O)[C@H](C)O`, for which the GI50 with OVCAR-3 ovarian is 36.5 µM; in the experiment with SK-MEL-28 melanoma it was 27.4 µM; in the experiment on NCI-H522 lung it was 18 µM; with UACC-62 melanoma, 38.5 µM; in the experiment with A549 NSCLC, more than 75.1 µM; with HL-60(TB) leukemia, 5.71 µM. The GI50 in the experiment on SF-295 CNS was more than 100 µM; with HCT-15 colon, 28.6 µM; in the experiment on M14 melanoma it was 34 µM; in the experiment with MOLT-4 leukemia, 1.99 µM. The TGI in the experiment on OVCAR-3 ovarian was more than 100 µM; with SK-MEL-28 melanoma it was 74.7 µM; with NCI-H522 lung, 43.4 µM; with UACC-62 melanoma it was more than 73.9 µM; in the experiment with A549 NSCLC, more than 100 µM; in the experiment with HL-60(TB) leukemia, 36.3 µM. Further, the TGI is more than 100 µM in the experiment with SF-295 CNS, more than 80.3 µM with HCT-15 colon, more than 100 µM in the experiment on M14 melanoma and more than 100 µM in the experiment with MOLT-4 leukemia.
In the case of `CCOC(=O)NC(=O)c1cn(CCCCCCOC(=O)NCCCCCCNC(=O)OCCCCCCn2cc(C(=O)NC(=O)OCC)c(=O)[nH]c2=O)c(=O)[nH]c1=O`, the TGI in the experiment on OVCAR-3 ovarian, in the experiment with SK-MEL-28 melanoma, with NCI-H522 lung, in the experiment with UACC-62 melanoma, with A549 NSCLC and in the experiment with HL-60(TB) leukemia was more than 100 µM in each case. Besides, the TGI in the experiment on SF-295 CNS, in the experiment with HCT-15 colon, in the experiment on M14 melanoma and with MOLT-4 leukemia was more than 100 µM in each case.
With `Cc1ccc(N2C(=O)C3C=CC(n4[nH]c(=O)n(Cc5ccccc5)c4=O)CC3C2=O)cc1` (stereo not given), the TGI in the experiment on OVCAR-3 ovarian, in the experiment on SK-MEL-28 melanoma, with NCI-H522 lung, with UACC-62 melanoma, with A549 NSCLC and in the experiment on HL-60(TB) leukemia was more than 100 µM each time. For the same molecule, the TGI in the experiment on SF-295 CNS, in the experiment on HCT-15 colon, in the experiment with M14 melanoma and in the experiment with MOLT-4 leukemia was more than 100 µM throughout.
On to `COC(=O)c1cc2ccc(OC(C)=O)c(OC(C)=O)c2cn1`, for which the TGI in the experiment on OVCAR-3 ovarian was 30.9 µM; in the experiment with SK-MEL-28 melanoma it was 34.3 µM; in the experiment with NCI-H522 lung, 34.5 µM; with UACC-62 melanoma it was 5.8 µM and 35.1 µM; in the experiment with A549 NSCLC, 43 µM; with HL-60(TB) leukemia, 8.21 µM and 3.8 µM. Also, the TGI with HCT-15 colon was 39 µM; with M14 melanoma, 34.3 µM; with MOLT-4 leukemia it was 6.54 µM and 4.28 µM. In addition, the GI50 with UACC-62 melanoma is 16.3 µM; in the experiment with HL-60(TB) leukemia, 1.63 µM; in the experiment on SF-295 CNS, 42.1 µM; with MOLT-4 leukemia, 2.22 µM.
Consider `O=C1CC(S(=O)(=O)O)C=C1Nc1cccc(Cl)c1` (stereo not given), for which the TGI in the experiment on OVCAR-3 ovarian, in the experiment on SK-MEL-28 melanoma, in the experiment on NCI-H522 lung, in the experiment on UACC-62 melanoma, in the experiment on A549 NSCLC and in the experiment with HL-60(TB) leukemia was more than 100 µM each time. Also, the TGI in the experiment with SF-295 CNS, in the experiment on M14 melanoma and in the experiment with MOLT-4 leukemia was more than 100 µM in each case.

(Values after PubChem BioAssay (NCI).)
